Experiments:
Format in all cases: biochemical
hABHD12 [1] = target: T1, hABHD12 (Homo sapiens, UniProt Q8N2K0); experiment: LC-MS assay of ABHD12 activity (1-AG utilization / AA formation) in hABHD12-HEK293 lysates; settings: n = 2, dose-response by LC-MS; for IC50: s.d.
T1 construct: expressed in transfected cells; host or cells: HEK293 (transient)
T1 sequence (Q8N2K0 1-398): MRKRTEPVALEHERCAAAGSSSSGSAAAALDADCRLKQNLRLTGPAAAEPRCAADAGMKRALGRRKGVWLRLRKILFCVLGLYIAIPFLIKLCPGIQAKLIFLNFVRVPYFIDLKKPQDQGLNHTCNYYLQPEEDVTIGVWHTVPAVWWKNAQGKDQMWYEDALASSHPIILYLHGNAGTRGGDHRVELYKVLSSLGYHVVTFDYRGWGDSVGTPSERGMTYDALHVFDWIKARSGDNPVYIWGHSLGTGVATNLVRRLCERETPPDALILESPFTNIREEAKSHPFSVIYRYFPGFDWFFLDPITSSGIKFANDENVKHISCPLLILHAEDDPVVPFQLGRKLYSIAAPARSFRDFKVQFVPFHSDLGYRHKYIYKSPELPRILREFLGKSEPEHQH
Protocol: The fluorescent glycerol assay was mimicked otherwise but instead of assaying glycerol, utilization of 1-AG and concomitant formation of AA was monitored by LC-MS analysis. […] Enzymatic reaction was stopped by adding 400 µL of cold 11 mM H3PO4 in acetonitrile. 150 µL aliquots were filtered using Captiva 96-well filter plate (0.2 µm, Agilent Technologies, USA) into the Captiva 96-well collection plate (Agilent Technologies, USA) containing 50 µL of 0.1% formic acid in H2O. The collection plate was centrifuged at 4°C for 10 minutes and the samples were analyzed by LC-MS. HPLC system consisted of an Agilent 1200 Series Rapid Resolution LC System (Agilent Technologies, Waldbronn, Germany) with a solvent micro vacuum degasser, a binary pump, a thermostatted column compartment, and an autosampler. The mass analysis was made with an Agilent 6410 Triple Quadrupole MS equipped with an electrospray ionization (ESI) source (Agilent Technologies, Palo Alto, CA, USA). Five microliters of the sample solution were injected onto a reversed-phase HPLC column (Zorbax Eclipse XDB-C18 Rapid Resolution HT 2.1 mm×50 mm, 1.8 µm) (Agilent Technologies, Palo Alto, CA, USA) using an isocratic mobile phase consisting of 0.1% formic acid in a solution of H2O and methanol (20∶80 v/v) delivered at 0.5 mL/min. Column temperature was maintained at 50°C and the autosampler tray temperature was set at 4°C. The following ionization conditions were used for 1-AG: positive ESI mode, drying gas (nitrogen) temperature 300°C, drying gas flow rate 8 L/min, nebulizer pressure 40 psi, and capillary voltage 4000 V. The following ionization conditions were used for AA: negative ESI mode, drying gas (nitrogen) temperature 300°C, drying gas flow rate 8 L/min, nebulizer pressure 40 psi, and capillary voltage 4000 V. Analyte detection was performed using multiple reaction monitoring (MRM) with the following transitions: m/z 379 → 287 for 1-AG and m/z 303 → 303 for AA. Fragmentor voltage and collision energy for 1-AG and AA were 130 V/8 V and 175 V/2 V, respectively. […] In addition, the 2-AG positional isomer is chromatographically separated from 1-AG with retention time 2.1 min, and the peak areas of 1-AG and 2-AG were subsequently combined for all quantitative analyses reported and are thus collectively termed “1-AG”. The calibration range of 0.1–2,000 ng/mL and 0.1–1,000 ng/mL was prepared for monitored 1-AG and AA, respectively. The lower limit of quantification (LLOQ) for both analytes, 1-AG and AA, was 1.0 ng/mL.

hABHD6 = target: T2, hABHD6 (Homo sapiens, UniProt Q9BV23); experiment: Fluorescent glycerol assay in hABHD6-HEK293 lysates; settings: for remaining activity at 10 µM: NI = no inhibition at 10 µM, read-out: hABHD6 Remaining activity % control ± s.e.m (n=3)
T2 construct: expressed in transfected cells; host or cells: HEK293 (transient)
T2 sequence (Q9BV23 1-337): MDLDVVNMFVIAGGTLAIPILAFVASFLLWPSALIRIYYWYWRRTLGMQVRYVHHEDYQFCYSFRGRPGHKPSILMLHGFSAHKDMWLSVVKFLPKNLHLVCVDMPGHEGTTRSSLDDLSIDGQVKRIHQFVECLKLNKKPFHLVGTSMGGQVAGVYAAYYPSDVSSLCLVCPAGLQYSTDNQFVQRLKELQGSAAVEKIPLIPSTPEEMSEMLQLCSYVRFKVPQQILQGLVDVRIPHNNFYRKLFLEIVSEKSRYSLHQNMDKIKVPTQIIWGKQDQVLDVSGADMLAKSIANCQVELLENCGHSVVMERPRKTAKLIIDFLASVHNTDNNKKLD
Protocol: (§1) Glycerol liberated from 1-AG hydrolysis was determined with a sensitive fluorescent assay using lysates of HEK293 cells with transient overexpression of hABHD12, hABHD6 or hMAGL, essentially as previously described. […] Fluorescence (λex 530; λem 590 nm) was monitored using a Tecan Infinite M200 plate reader (Tecan Group Ltd., Männedorf, Switzerland). Inhibitory activities of selected compounds towards FAAH were determined using membranes of hFAAH overexpressing COS-7 cells, essentially as previously described. The final incubation volume (100 µL) contained 1 µg of protein and the substrate concentration was 20 µM (10 nM of ^3H-anandamide having specific activity of 60 Ci/mmol and concentration of 1 mCi/mL).

hMAGL = target: T3, hMAGL (Homo sapiens, UniProt Q99685); experiment: Fluorescent glycerol assay in hMAGL-HEK293 lysates; settings: for remaining activity at 10 µM: read-out: hMAGL Remaining activity % control ± s.e.m (n=3)
T3 construct: expressed in transfected cells; host or cells: HEK293 (transient)
T3 sequence (Q99685 1-303): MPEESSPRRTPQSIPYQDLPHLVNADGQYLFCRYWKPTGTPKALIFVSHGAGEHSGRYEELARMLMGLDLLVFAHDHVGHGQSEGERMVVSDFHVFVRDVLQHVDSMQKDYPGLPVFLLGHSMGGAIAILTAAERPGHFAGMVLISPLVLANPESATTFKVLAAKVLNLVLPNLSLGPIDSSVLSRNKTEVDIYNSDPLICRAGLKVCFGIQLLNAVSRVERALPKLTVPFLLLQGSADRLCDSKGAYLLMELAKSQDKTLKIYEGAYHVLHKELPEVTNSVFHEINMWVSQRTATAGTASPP
Protocol: as §1

hFAAH = target: T4, hFAAH (Homo sapiens, UniProt O00519); experiment: FAAH activity, membranes of hFAAH overexpressing COS-7 cells, 3H-anandamide; settings: read-out: hFAAH Remaining activity % control (mean (range)), n=2
T4 construct: expressed in transfected cells; host or cells: COS-7
T4 sequence (O00519 1-579): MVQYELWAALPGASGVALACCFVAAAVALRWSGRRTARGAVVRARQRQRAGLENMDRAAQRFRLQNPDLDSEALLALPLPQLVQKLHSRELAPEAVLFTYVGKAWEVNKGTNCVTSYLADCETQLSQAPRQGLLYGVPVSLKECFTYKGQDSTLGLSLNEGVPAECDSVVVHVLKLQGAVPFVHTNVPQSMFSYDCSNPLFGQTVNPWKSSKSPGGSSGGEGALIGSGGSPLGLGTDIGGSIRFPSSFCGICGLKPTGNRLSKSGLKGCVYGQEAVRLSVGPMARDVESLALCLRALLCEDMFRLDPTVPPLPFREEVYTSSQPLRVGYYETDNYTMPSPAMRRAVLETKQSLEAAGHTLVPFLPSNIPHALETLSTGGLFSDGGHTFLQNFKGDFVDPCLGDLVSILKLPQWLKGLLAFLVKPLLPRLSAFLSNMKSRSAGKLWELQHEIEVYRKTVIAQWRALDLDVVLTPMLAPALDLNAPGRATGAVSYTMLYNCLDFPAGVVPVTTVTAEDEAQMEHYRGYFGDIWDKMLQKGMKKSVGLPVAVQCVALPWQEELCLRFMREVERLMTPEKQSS
Protocol: as §1

CB1R [2] = target: T5, CB1R (Rattus norvegicus, UniProt P20272); experiment: [35S]GTPγS binding, CB1R agonist activity, rat cerebellar membranes
T5 construct: membranes prepared from brain tissue of 4-week-old male rodents were used; from tissue; host or cells: rat cerebellar membranes
Protocol: (§2) The CB1 and CB2 receptor activity of the selected compounds (10 µM) were measured using the GTPγS binding assay according to the previously described methods, [33].
(§3) For ABPP experiments (Figure 6C) and cannabinoid receptor activity assays (Table S2), membranes prepared from brain tissue of 4-week-old male rodents were used. The animals were obtained from the National Laboratory Animal Centre, University of Eastern Finland. Approval for the harvesting of animal tissue was obtained from the local welfare officer of the University of Eastern Finland.

hCB2R = target: T6, hCB2R (Homo sapiens, UniProt P34972); experiment: [35S]GTPγS binding, CB2R agonist activity, hCB2R-CHO cell membranes
T6 construct: expressed in transfected cells; host or cells: CHO

CB1R [3] = target: T5, CB1R; experiment: [35S]GTPγS binding, CB1R antagonist activity, rat cerebellar membranes; settings: 10 µM
Protocol: as §2, §3

hABHD12 [4] = target: T1, hABHD12; experiment: Fluorescent glycerol assay of 1-AG hydrolysis in hABHD12-HEK293 lysates; settings: for remaining activity at 10 µM / IC50 / Emax: hABHD12-HEK293 lysates; for remaining activity at 10 µM: NI = no inhibition, read-out: Remaining activity at 10 µM % ± s.e.m.; for Emax: read-out: max inhibition (converted)
Protocol: as §1

[5] = three independent experiments, read-out: -logIC50±s.e.m. (converted)

T6 sequence (P34972 whole entry): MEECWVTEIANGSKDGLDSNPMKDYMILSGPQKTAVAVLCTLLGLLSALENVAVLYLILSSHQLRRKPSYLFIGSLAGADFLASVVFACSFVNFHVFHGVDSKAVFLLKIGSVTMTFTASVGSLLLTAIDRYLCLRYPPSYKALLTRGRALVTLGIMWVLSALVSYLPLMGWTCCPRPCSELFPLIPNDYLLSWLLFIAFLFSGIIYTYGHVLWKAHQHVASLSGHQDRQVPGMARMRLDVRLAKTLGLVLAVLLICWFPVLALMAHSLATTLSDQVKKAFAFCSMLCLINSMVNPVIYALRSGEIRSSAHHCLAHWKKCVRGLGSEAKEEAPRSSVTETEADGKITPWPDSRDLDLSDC
T5 sequence (P20272 whole entry): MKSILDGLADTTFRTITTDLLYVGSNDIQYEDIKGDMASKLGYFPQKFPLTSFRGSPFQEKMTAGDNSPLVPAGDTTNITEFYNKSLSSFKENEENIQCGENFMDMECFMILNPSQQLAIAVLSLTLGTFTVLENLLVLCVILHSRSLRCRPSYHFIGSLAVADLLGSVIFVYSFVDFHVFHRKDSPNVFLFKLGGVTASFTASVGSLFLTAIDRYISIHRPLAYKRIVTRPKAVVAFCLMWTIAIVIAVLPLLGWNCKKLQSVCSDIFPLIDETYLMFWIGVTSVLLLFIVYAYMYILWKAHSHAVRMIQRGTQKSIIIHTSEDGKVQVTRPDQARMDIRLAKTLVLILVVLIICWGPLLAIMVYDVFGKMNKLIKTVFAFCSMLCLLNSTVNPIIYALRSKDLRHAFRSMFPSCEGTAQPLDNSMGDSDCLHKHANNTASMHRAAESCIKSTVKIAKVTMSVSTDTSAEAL

Molecule	IC50 (hABHD12 [1]) [µM]	remaining activity at 10 µM (hABHD6) [%]	remaining activity at 10 µM (hMAGL) [%]	remaining activity at 10 µM (hFAAH) [%]	IC50 (hABHD12 [4]; read-out: IC50) [µM]	Emax (hABHD12 [4]) [%]	other results
C=C(C)[C@@H]1CC[C@]2(C(=O)O)CC[C@]3(C)[C@H](CC[C@@H]4[C@@]5(C)CC[C@H](O)C(C)(C)[C@@H]5CC[C@]43C)[C@@H]12 [Compound 1, Betulinic acid, reference compound]	2.51	~70	76.7 ± 0.1	83	–	–	CB1R agonist activity [35S]GTPγS binding % Basal (Mean (range), n=2) (CB1R [2]; 10 µM): 91 (87-96) % Basal; CB2R agonist activity [35S]GTPγS binding % Basal (Mean (range), n=2) (hCB2R; 10 µM): 132 (106-158) % Basal; CB1R antagonist activity [35S]GTPγS binding % HU210-evoked response (Mean (range), n=2) (CB1R [3]): 99 (98-99) % HU210-evoked response
C[C@H]1[C@H](C)CC[C@]2(C(=O)O)CC[C@]3(C)C(=CC[C@@H]4[C@@]5(C)CC[C@H](O)C(C)(C)[C@@H]5CC[C@]43C)[C@H]12 [Compound 4, Ursolic acid, reference compound]	1.82	–	–	–	–	–	hABHD12 inhibitory activity (in words) (hABHD12 [4]): selectively inhibit ABHD12; remaining activity at 10 µM (hABHD12 [4]): ~30%; effect on ABHD6 activity (hABHD6; preliminary screening): negligible effect; effect on MAGL activity (hMAGL; preliminary screening): negligible effect
C=C(C)[C@@H]1CC[C@]2(C=O)CC[C@]3(C)[C@H](CC[C@@H]4[C@@]5(C)CCC(=O)C(C)(C)[C@@H]5CC[C@]43C)[C@@H]12 [Compound 17]	–	93.6 ± 3.8	84.1 ± 4.8	95	4.4	57	IC50 (hABHD12 [4]; [5]): 4.47 µM
C=C(C)[C@@H]1CC[C@]2(C(=O)O)CC[C@]3(C)[C@H](CC[C@@H]4[C@@]5(C)CCC(=O)C(C)(C)[C@@H]5CC[C@]43C)[C@@H]12 [Compound 18]	3.31	–	–	–	–	–	max inhibition (hABHD12 [1]): 100%
C=C(C)[C@@H]1CC[C@]2(C=NO)CC[C@]3(C)[C@H](CC[C@@H]4[C@@]5(C)CC[C@H](O)C(C)(C)[C@@H]5CC[C@]43C)[C@@H]12 [Compound 24]	–	92.4 ± 3.9	86 ± 4.3	95	6.5	61	–
C=C(C)[C@@H]1CC[C@]2(C=NO)CC[C@]3(C)[C@H](CC[C@@H]4[C@@]5(C)CCC(=NO)C(C)(C)[C@@H]5CC[C@]43C)[C@@H]12 [Compound 25]	3.98	103 ± 2.3	88.7 ± 4.2	97	–	–	max inhibition (hABHD12 [1]): 76%
C=C(C)[C@@H]1CC[C@]2(C(=O)O)CC[C@]3(C)[C@H](CC[C@@H]4[C@@]5(C)CC6OC(C)(C)OC6C(C)(C)[C@@H]5CC[C@]43C)[C@@H]12 (some centres unmarked) [Compound 31]	–	93.2 ± 3	82.7 ± 4.1	91	7.5	90	IC50 (hABHD12 [4]; [5]): 7.41 µM
CC1(C)CC[C@]23CC[C@]4(C)C(CC[C@@H]5[C@@]6(C)Cc7c([nH]c8ccc(F)cc78)C(C)(C)[C@@H]6CC[C@]54C)[C@H]2[C@H]1OC3 (some centres unmarked) [Compound 35]	–	–	–	–	–	–	hABHD12 inhibitory activity (in words) (hABHD12 [4]): total loss of the inhibitory activity; remaining activity at 10 µM (hABHD12 [4]): > 100%; inhibition at 10 µM (hMAGL; read-out: inhibition of MAGL at 10 µM): ~50%
C=C(C)[C@@H]1CC[C@]2(C(=O)O)CC[C@]3(C)[C@H](CC[C@@H]4[C@@]5(C)CCC(=O)NC(C)(C)[C@@H]5CC[C@]43C)[C@@H]12 [Compound 36]	–	80 ± 4.4	54.1 ± 4.7	88	9.1	88	–
CCCCCCC(C)(C)c1cc(O)c2c(c1)OC(C)(C)[C@@H]1CC=C(CO)C[C@@H]21 [HU210]	–	–	–	–	–	–	CB1R agonist activity [35S]GTPγS binding % basal ± SEM, n > 3 (CB1R [2]; reference compound at 1 µM): 430 ± 36 % Basal; CB2R agonist activity [35S]GTPγS binding % Basal (Mean (range), n=2) (hCB2R; 10 nM): 354 (348-361) % Basal
SR144528	–	–	–	–	–	–	CB2R agonist activity [35S]GTPγS binding % Basal (Mean (range), n=2) (hCB2R; 1 µM): 68 (60-76) % Basal

From paper PMC4045134, “Discovery of Triterpenoids as Reversible Inhibitors of α/β-hydrolase Domain Containing 12 (ABHD12)” (PLoS ONE, 2014)
